Assay [1] has as its system Trichostrongylus colubriformis. Description: In vivo nematode test, Trichostrongylus colubriformis / sheep (faecal egg count before and after treatment). The conditions noted are these: experimentally infected sheep (Schaf), treated after the prepatent period, pure active substance in gelatin capsules, oral, dose giving complete cessation of egg excretion, read-out: Dosis effectiva. An excerpt: Trichostrongylus colubriformis / Schaf
Experimentell mit Trichostrongylus colubriformis infizierte Schafe wurden nach Ablauf der Präpatenzzeit des Parasiten behandelt. Die Wirkstoffe wurden als reiner Wirkstoff in Gelatinekapseln oral appliziert.
(§1) Der Wirkungsgrad wird dadurch bestimmt, daß man die mit dem Kot ausgeschiedenen Wurmeier vor und nach der Behandlung quantitativ auszählt.
(§2) Ein völliges Sistieren der Eiausscheidung nach der Behandlung bedeutet, daß die Würmer abgetrieben wurden oder so geschädigt sind, daß sie keine Eier mehr produzieren (Dosis effectiva).
(§3) Geprüfte Wirkstoffe und wirksame Dosierungen (Dosis effectiva) sind aus der nachfolgenden Tabelle ersichtlich.

The subject of assay [2] is Haemonchus contortus. Description: In vivo nematode test, Haemonchus contortus / sheep (faecal egg count before and after treatment). The settings on record: experimentally infected sheep (Schaf), treated after the prepatent period, pure active substance in gelatin capsules, oral, dose giving complete cessation of egg excretion, read-out: Dosis effectiva.
From the text: Haemonchus contortus / Schaf
Experimentell mit Haemonchus contortus infizierte Schafe wurden nach Ablauf der Präpatenzzeit des Parasiten behandelt. Die Wirkstoffe wurden als reiner Wirkstoff in Gelatinekapseln oral appliziert.
as §1, §2, §3

As for `CCCCCCCCCCCCCCCCCCNC(=O)c1c(-c2c(Cl)cccc2Cl)noc1CC` [Beispiel 1, N-Oktadecyl-3-(2,6-dichlor-phenyl)-5-ethyl-isoxazol-4-carbonsäureamid], the minimal effective dose is 10 mg/kg in assay [1] and 5 mg/kg in assay [2]. `Cc1ccc(OC(=O)c2c(-c3c(Cl)cccc3Cl)noc2C)cc1` [Beispiel 59]: the minimal effective dose in assay [1] is 5 mg/kg; in assay [2], 10 mg/kg. For `Cc1onc(-c2c(Cl)cccc2Cl)c1C(=O)Oc1ccc(Cl)cc1` [Beispiel 62], the minimal effective dose in assay [1] and in assay [2] was 10 mg/kg throughout. Regarding `CCCCCCCCCCCCCCCCCCNC(=O)c1c(-c2c(Cl)cccc2Cl)noc1C` [Beispiel 83], the minimal effective dose in assay [1] and in assay [2] was 10 mg/kg each time.

In the case of `Cc1onc(-c2c(Cl)cccc2Cl)c1C(=O)Nc1cc(F)cc(F)c1` [Beispiel 103], the minimal effective dose in assay [2] was 10 mg/kg.

For the molecule `Cc1ccccc1NC(=O)c1c(-c2c(Cl)cccc2Cl)noc1C` [Beispiel 116], the minimal effective dose in assay [1] amounted to 5 mg/kg; in assay [2] it was 10 mg/kg. Turning to `Cc1ccc(NC(=O)c2c(-c3c(Cl)cccc3Cl)noc2C)cc1` [Beispiel 119], the values for the minimal effective dose in assay [1] and in assay [2] were 10 mg/kg and 5 mg/kg, respectively. For `CCc1onc(-c2c(Cl)cccc2Cl)c1C(=O)Nc1ccc(SC(F)(F)F)cc1` [Beispiel 127], in that order: 5 mg/kg and 10 mg/kg. Take `Cc1ccccc1NC(=O)c1c(-c2c(F)cccc2Cl)noc1C` [Beispiel 221]: in assay [2], the minimal effective dose stood at 5 mg/kg. Turning to `Cc1onc(-c2c(F)cccc2Cl)c1C(=O)Nc1ccc(Cl)cc1F` [Beispiel 230], the results for the minimal effective dose in assay [1] and in assay [2] were 5 mg/kg and 10 mg/kg, respectively.

The values above are taken from patent publication EP0573883A1, “Utilization of 3 substituted aryl-5-alkyl-isoxazole-4-carboxylic acid derivatives against endoparasites new 3-substituted aryl-5-alkyl-isoxazole-4-carboxylic acid derivatives and process for their preparation” (BAYER AG, priority 1992, dated 1993).
